In article PMC6364417, “Kinase inhibitor library screening identifies synergistic drug combinations effective in sensitive and resistant melanoma cells” (Journal of Experimental & Clinical Cancer Research : CR, 2019):

Columns and labels:
Experiment in all cases: Kinase inhibitor library screening, PrestoBlue cell viability, 1 or 10 μM, 72 h
[1] = tested on: 501Mel cells (parental); settings: 501Mel Parental, 72 h
Summary of the method: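 Cells are treated with each inhibitor at 1 or 10 μM, incubated 72 h, then PrestoBlue reagent is added and the plate is read. Data are normalised to untreated cells.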

[2] = tested on: 501Mel-GP cells (Dabrafenib-resistant); settings: 501Mel GP, 72 h
[3] = tested on: 501Mel-XP cells (Vemurafenib-resistant); settings: 501Mel XP, 72 h
[4] = tested on: A375 cells (parental); settings: A375 Parental, 72 h; for cell viability, A375 Parental, 10μΜ / cell viability, A375 Parental, 1μΜ: in %
[5] = tested on: A375-GP cells (Dabrafenib-resistant); settings: A375 GP, 72 h; for cell viability, A375 GP, 10μΜ / cell viability, A375 GP, 1μΜ: in %
[6] = tested on: A375-XP cells (Vemurafenib-resistant); settings: A375 XP, 72 h; for cell viability, A375 XP, 1μΜ / cell viability, A375 XP, 10μΜ: in %
[7] = tested on: IGR37 cells (parental); settings: IGR37 Parental, 72 h
[8] = tested on: IGR37-GP cells (Dabrafenib-resistant); settings: IGR37 GP, 72 h
[9] = tested on: IGR37-XP cells (Vemurafenib-resistant); settings: IGR37 XP, 72 h

| Compound | cell viability (kinase inhibitor library screening) ([1]; 1μΜ) | cell viability (kinase inhibitor library screening) ([1]; 10μΜ) | cell viability (kinase inhibitor library screening) ([2]; 1μΜ) | cell viability (kinase inhibitor library screening) ([2]; 10μΜ) | cell viability (kinase inhibitor library screening) ([3]; 1μΜ) | cell viability (kinase inhibitor library screening) ([3]; 10μΜ) | cell viability (kinase inhibitor library screening) ([4]; 10μΜ) | cell viability (kinase inhibitor library screening) ([5]; 10μΜ) | cell viability (kinase inhibitor library screening) ([6]; 10μΜ) | cell viability (kinase inhibitor library screening) ([7]; 1μΜ) | cell viability (kinase inhibitor library screening) ([7]; 10μΜ) | cell viability (kinase inhibitor library screening) ([8]; 1μΜ) | cell viability (kinase inhibitor library screening) ([8]; 10μΜ) | cell viability (kinase inhibitor library screening) ([9]; 1μΜ) | cell viability (kinase inhibitor library screening) ([9]; 10μΜ) | cell viability, 501Mel Parental, 1μΜ ([1]; 1μΜ, in %) | cell viability, 501Mel Parental, 10μΜ ([1]; 10μΜ, in %) | cell viability, 501Mel GP, 10μΜ ([2]; 10μΜ, in %) | cell viability, 501Mel XP, 1μΜ ([3]; 1μΜ, in %) | cell viability, 501Mel XP, 10μΜ ([3]; 10μΜ, in %) | further results |
| --- | --- | --- | --- | --- | --- | --- | --- | --- | --- | --- | --- | --- | --- | --- | --- | --- | --- | --- | --- | --- | --- |
| CN(C)c1ccc(-c2nc3ncc(Cl)c(N4CCN(CC(=O)Nc5nccs5)CC4)c3[nH]2)cc1 [CCT129202] | 93.7% | 52.8% | 99.5% | 41.1% | 85.2% | 16.7% | 45.9% | 45.0% | 49.9% | 95.8% | 78.6% | 88.1% | 76.6% | 96.6% | 40.5% | – | – | – | – | – | cell viability (kinase inhibitor library screening) ([5]; 1μΜ): 104.8%; cell viability (kinase inhibitor library screening) ([6]; 1μΜ): 105.5% |
| Cc1cc(CN2CCN(c3c(Br)cnc4nc(-c5ccc(N6CCN(C)CC6)cc5)[nH]c34)CC2)no1 [CCT137690] | 87.2% | 0.283% | 95.4% | -0.454% | 76.9% | -0.565% | 1.0% | 0.6% | 0.9% | 91.0% | 0.571% | 88.6% | 1.7% | 93.1% | 0.741% | – | – | – | – | – | cell viability (kinase inhibitor library screening) ([4]; 1μΜ): 56.7%; cell viability (kinase inhibitor library screening) ([5]; 1μΜ): 56.6% |
| CN1CCN(c2cccc(Nc3nc4c(-c5ccc(S(C)(=O)=O)cc5)cccn4n3)c2)CC1 [CEP33779] | – | – | – | – | – | – | – | – | – | – | – | – | – | – | – | 94.5 | 91.1 | 81.6 | 88.8 | 71.8 | cell viability, A375 Parental, 10μΜ ([4]; 10μΜ): 76.5; cell viability, A375 GP, 10μΜ ([5]; 10μΜ): 77.6; cell viability, A375 XP, 1μΜ ([6]; 1μΜ): 100.1; cell viability, A375 XP, 10μΜ ([6]; 10μΜ): 88.6; cell viability, IGR37 Parental, 1μΜ ([7]; 1μΜ, in %): 103.9; cell viability, IGR37 Parental, 10μΜ ([7]; 10μΜ, in %): 83.9; cell viability, IGR37 GP, 10μΜ ([8]; 10μΜ): 67.9%; cell viability, IGR37 GP, 1μΜ ([8]; 1μΜ, in %): 93.0; cell viability, IGR37 XP, 10μΜ ([9]; 10μΜ): 28.8%; cell viability, IGR37 XP, 1μΜ ([9]; 1μΜ, in %): 90.4 |
| CCc1cc2c(cc1N1CCC(N3CCOCC3)CC1)C(C)(C)c1[nH]c3cc(C#N)ccc3c1C2=O [CH5424802] | 109.6% | 80.1% | 104.8% | 72.7% | 99.2% | 32.3% | 64.9% | 71.2% | 75.8% | 103.9% | 96.2% | 105.2% | 10.4% | 106.4% | 5.0% | – | – | – | – | – | cell viability (kinase inhibitor library screening) ([4]; 1μΜ): 106.9%; cell viability (kinase inhibitor library screening) ([6]; 1μΜ): 105.6% |
| C=CC(=O)Nc1cc2c(Nc3ccc(F)c(Cl)c3)ncnc2cc1OCCCN1CCOCC1 [CI-1033 (Canertinib)] | – | – | – | – | – | – | – | – | – | – | – | – | – | – | – | 103.3 | 35.1 | 1.4 | 93.9 | 0.248 | cell viability, 501Mel GP, 1μΜ ([2]; 1μΜ, in %): 102.8; cell viability, A375 Parental, 1μΜ ([4]; 1μΜ): 105.5; cell viability, A375 Parental, 10μΜ ([4]; 10μΜ): 24.5; cell viability, A375 GP, 1μΜ ([5]; 1μΜ): 99.4; cell viability, A375 GP, 10μΜ ([5]; 10μΜ): 23.3; cell viability, A375 XP, 10μΜ ([6]; 10μΜ): 15.2; cell viability, IGR37 Parental, 1μΜ ([7]; 1μΜ, in %): 98.8; cell viability, IGR37 Parental, 10μΜ ([7]; 10μΜ, in %): 53.7; cell viability, IGR37 GP, 10μΜ ([8]; 10μΜ): 30.7%; cell viability, IGR37 GP, 1μΜ ([8]; 1μΜ, in %): 92.4; cell viability, IGR37 XP, 10μΜ ([9]; 10μΜ): 23.7%; cell viability, IGR37 XP, 1μΜ ([9]; 1μΜ, in %): 99.0 |
| O=C(NOCC1CC1)c1ccc(F)c(F)c1Nc1ccc(I)cc1Cl [CI-1040 (PD184352)] | – | – | – | – | – | – | – | – | – | – | – | – | – | – | – | 64.1 | 50.2 | 56.0 | 81.0 | 46.4 | cell viability, 501Mel GP, 1μΜ ([2]; 1μΜ, in %): 98.8; cell viability, A375 Parental, 1μΜ ([4]; 1μΜ): 22.5; cell viability, A375 Parental, 10μΜ ([4]; 10μΜ): 21.5; cell viability, A375 GP, 1μΜ ([5]; 1μΜ): 35.2; cell viability, A375 GP, 10μΜ ([5]; 10μΜ): 16.8; cell viability, A375 XP, 1μΜ ([6]; 1μΜ): 44.6; cell viability, A375 XP, 10μΜ ([6]; 10μΜ): 12.9; cell viability, IGR37 Parental, 1μΜ ([7]; 1μΜ, in %): 43.0; cell viability, IGR37 Parental, 10μΜ ([7]; 10μΜ, in %): 35.8; cell viability, IGR37 GP, 10μΜ ([8]; 10μΜ): 55.9%; cell viability, IGR37 GP, 1μΜ ([8]; 1μΜ, in %): 84.8; cell viability, IGR37 XP, 10μΜ ([9]; 10μΜ): 26.4%; cell viability, IGR37 XP, 1μΜ ([9]; 1μΜ, in %): 81.9 |
| COCCOc1ccc2c(c1)ncn2-c1ccc2cccc(N3CCC(N)CC3)c2n1 [CP 673451] | – | – | – | – | – | – | – | – | – | – | – | – | – | – | – | – | – | – | – | – | Cell viability in kinase inhibitor library screening, 501Mel Parental, 10μΜ ([1]; 10μΜ, in %): 90.0; Cell viability in kinase inhibitor library screening, 501Mel GP, 1μΜ ([2]; 1μΜ, in %): 117.9; Cell viability in kinase inhibitor library screening, 501Mel GP, 10μΜ ([2]; 10μΜ, in %): 96.1; Cell viability in kinase inhibitor library screening, 501Mel XP, 1μΜ ([3]; 1μΜ, in %): 107.1; Cell viability in kinase inhibitor library screening, 501Mel XP, 10μΜ ([3]; 10μΜ, in %): 62.2; Cell viability in kinase inhibitor library screening, A375 Parental, 10μΜ ([4]; 10μΜ): 71.9; Cell viability in kinase inhibitor library screening, A375 Parental, 1μΜ ([4]; 1μΜ): 104.8; Cell viability in kinase inhibitor library screening, A375 GP, 1μΜ ([5]; 1μΜ): 105.4; Cell viability in kinase inhibitor library screening, A375 GP, 10μΜ ([5]; 10μΜ): 64.4; Cell viability in kinase inhibitor library screening, A375 XP, 1μΜ ([6]; 1μΜ): 109.7; Cell viability in kinase inhibitor library screening, A375 XP, 10μΜ ([6]; 10μΜ): 76.9; Cell viability in kinase inhibitor library screening, IGR37 Parental, 10μΜ ([7]; 10μΜ, in %): 105.1; Cell viability in kinase inhibitor library screening, IGR37 GP, 10μΜ ([8]; 10μΜ): 88.6%; Cell viability in kinase inhibitor library screening, IGR37 GP, 1μΜ ([8]; 1μΜ, in %): 99.0; Cell viability in kinase inhibitor library screening, IGR37 XP, 10μΜ ([9]; 10μΜ): 31.6%; Cell viability in kinase inhibitor library screening, IGR37 XP, 1μΜ ([9]; 1μΜ, in %): 105.2 |
